Measured values taken from paper PMC5232348, “Molecular and Functional Characterization of Three Odorant-Binding Protein from Periplaneta americana” (PLoS ONE, 2017).
Where a name gives a salt, the structure may show the parent alone. Read-outs that look alike come from different tables or passages of the source.

What was measured:
[1] = target: PameOBP1 (Periplaneta americana, UniProt B6E9U7); assay: Competitive fluorescence binding assay (1-NPN displacement), recombinant PameOBP1; conditions: 2 μM 1-NPN as fluorescent reporter, competitor 0.25–2.5 μM or 2–40 μM; for IC50: read-out: PameOBP1 IC50
Source text: (§1) The PameOBPs were expressed by using Escherichia coli expression system. To generate properly folded protein, the signal peptide predicted by SignalIP 4.1 [18] was removed. The two PameOBPs were amplified by gene special primers (S1 Table) with the cDNA as the template. The purified PCR products were ligated into expression vector pGEX-4T-1 using In-Fusion® HD Cloning Kit (Clontech, Mountain View, CA) according to the manufacturer’s instructions. The recombinant plasmid was transformed into E. coli BL21 (DE3) cells, and then expression and purification was performed according to a previously reported protocol. Recombinant proteins in the supernatant were purified by an affinity chromatography column GSTrap FF (GE Healthcare, Piscataway, NJ, USA). The GST tags were cleaved from recombinant proteins using 400 μL of thrombin (1U/μL) while loaded on GSTrap FF column at 25°C for 10 h and allowed 12 h. After that, the recombinant proteins were eluted with PBS buffer. Finally, the eluted proteins were desalted using HiTrap Desalting (GE Healthcare), lyophilized, and stored at −80°C until use.
(§2) Emission fluorescence spectra were measured on a Hitachi F-4500 fluorescence spectrophotometer following our previous studies. Firstly, dissociation constants of the PameOBPs for N-phenyl-1-naphtylamine (1-NPN) were calculated to determine the suitability of 1-NPN as a fluorescence reporter. […] The binding data were analyzed following our previous studies.

[2] = target: PameOBP2 (Periplaneta americana, UniProt B6E9U8); assay: Competitive fluorescence binding assay (1-NPN displacement), recombinant PameOBP2; conditions: 2 μM 1-NPN as fluorescent reporter, competitor 0.25–2.5 μM or 2–40 μM; for IC50: read-out: PameOBP2 IC50
Source text: as §1, §2

[3] = target: PameOBP3 (Periplaneta americana, UniProt B6E9U9); assay: Competitive fluorescence binding assay (1-NPN displacement), recombinant PameOBP3
Source text: as §1, §2

[4] = 2 μM 1-NPN as fluorescent reporter, competitor 0.25–2.5 μM or 2–40 μM, read-out: PameOBP3 Ki

Chain of PameOBP3 (B6E9U9 entry or part of it): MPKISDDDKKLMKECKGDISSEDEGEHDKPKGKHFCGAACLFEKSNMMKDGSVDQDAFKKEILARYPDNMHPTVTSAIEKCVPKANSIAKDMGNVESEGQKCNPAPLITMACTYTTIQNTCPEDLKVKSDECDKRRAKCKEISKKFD
Chain of PameOBP2 (B6E9U8 entry or part of it): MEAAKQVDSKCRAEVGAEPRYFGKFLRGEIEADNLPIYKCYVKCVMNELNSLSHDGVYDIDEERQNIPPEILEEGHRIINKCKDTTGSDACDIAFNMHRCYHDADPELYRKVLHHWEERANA
Chain of PameOBP1 (B6E9U7 entry or part of it): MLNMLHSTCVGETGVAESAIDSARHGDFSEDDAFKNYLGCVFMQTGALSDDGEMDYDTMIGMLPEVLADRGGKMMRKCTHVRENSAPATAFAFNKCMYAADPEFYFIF

| Molecule | Ki ([1]; read-out: PameOBP1 Ki) | Ki ([2]; read-out: PameOBP2 Ki) | Ki [3] | Ki ([1]; PameOBP1 Ki) | Ki ([2]; PameOBP2 Ki) | Ki [3, 4] | also measured |
| --- | --- | --- | --- | --- | --- | --- | --- |
| Farnesene | 1.04 ± 0.1 µM | 0.52 ± 0.03 µM | – | – | – | – | Ki ([1]; listed as farnesene, read-out: PameOBP1 Ki): < 2 µM; IC50 [1]: 1.14 ± 0.12 µM; Ki ([2]; listed as farnesene, read-out: PameOBP2 Ki): < 2 µM; IC50 [2]: 0.64 ± 0.08 µM |
| CCCCCCCCCCCCCC [Tetradecane] | – | 0.96 ± 0.1 µM | – | – | – | – | IC50 [1]: > 40 µM; IC50 [2]: 1.19 ± 0.09 µM |
| CCCCOC(C)=O [butyl acetate] | – | – | > 40 µM | > 40 µM | > 40 µM | – | – |
| C=CC(C)(O)CC/C=C(\C)CCC=C(C)C (stereo not drawn) [Trans-nerolidol] | > 40 µM | 12.6 ± 0.98 µM | – | – | – | – | IC50 [1]: > 40 µM; IC50 [2]: 15.6 ± 1.3 µM |
| CCCCCC=O [hexanal] | – | – | > 40 µM | > 40 µM | > 40 µM | – | – |
| CCC/C=C\CO [cis-2-hexen-1-ol] | – | – | > 40 µM | > 40 µM | > 40 µM | – | – |
| CC(=O)OCc1ccccc1 [benzyl acetate] | > 40 µM | > 40 µM | – | – | – | > 40 µM | – |
| CCCCOC=O [butyl formate] | > 40 µM | > 40 µM | – | – | – | > 40 µM | – |
| C[C@@H]1CC[C@H]2C(C)(C)[C@H]3C[C@@]12CC[C@@]3(C)O [(+)-cedrol] | – | – | > 40 µM | > 40 µM | > 40 µM | – | – |
| CCC/C=C/COC(=O)CCC [trans-2-hexenyl butyrate] | > 40 µM | > 40 µM | – | – | – | > 40 µM | – |
| CC/C=C\CCO [Cis-3-hexenol] | – | – | > 40 µM | > 40 µM | > 40 µM | – | – |
| CC/C=C\CC=O [cis-3-hexenal] | > 40 µM | > 40 µM | – | – | – | > 40 µM | – |
| CC(=O)c1ccccc1 [acetophenone] | > 40 µM | > 40 µM | – | – | – | > 40 µM | – |
| CC(C)c1ccccc1 [cumene] | – | – | > 40 µM | > 40 µM | > 40 µM | – | – |
| CCCCCCCCCC=O [decanal] | > 40 µM | > 40 µM | – | – | – | > 40 µM | – |
| CCc1ccccc1 [ethylbenzene] | – | – | > 40 µM | > 40 µM | > 40 µM | – | – |

| Molecule | Ki ([1]; read-out: PameOBP1 Ki) | Ki ([2]; read-out: PameOBP2 Ki) | Ki [3] | Ki ([1]; PameOBP1 Ki) | Ki ([2]; PameOBP2 Ki) | Ki [3, 4] | also measured |
| --- | --- | --- | --- | --- | --- | --- | --- |
| CC12CCC(CC1)C(C)(C)O2 [eucalyptol] | > 40 µM | > 40 µM | – | – | – | > 40 µM | – |
| CCCCCCCCCCCC(C)=O [2-Tridecanone] | 1.85 ± 0.17 µM | 1.23 ± 0.08 µM | – | – | – | – | IC50 [1]: 2.02 ± 0.16 µM; IC50 [2]: 1.52 ± 0.16 µM |
| CCCCC(C)=O [2-hexanone] | – | – | > 40 µM | > 40 µM | > 40 µM | – | – |
| CCCCCCCCC(CO)CCCCCC (centres unmarked) [2-hexyl-1-decanol] | > 40 µM | > 40 µM | – | – | – | > 40 µM | – |
| CCCCCCCCCCCCCC(C)=O [2-pentadecanone] | > 40 µM | > 40 µM | – | – | – | > 40 µM | – |
| CC(=O)OCCC(C)C [isoamyl acetate] | > 40 µM | > 40 µM | – | – | – | > 40 µM | – |
| CCCCCCCCCOC(C)=O [nonyl acetate] | > 40 µM | > 40 µM | – | – | – | > 40 µM | – |
| CC(C)=CCC/C(C)=C/CO [geraniol] | – | – | > 40 µM | > 40 µM | > 40 µM | – | – |
| OCc1ccccc1 [benzyl alcohol] | – | – | > 40 µM | > 40 µM | > 40 µM | – | – |
| CCCCCCCCCCCC [dodecane] | > 40 µM | > 40 µM | – | – | – | > 40 µM | – |
| c1ccc2[nH]ccc2c1 [indole] | – | – | > 40 µM | > 40 µM | > 40 µM | – | – |
| C=CC(C)(O)CCC=C(C)C (centres unmarked) [linalool] | – | – | > 40 µM | > 40 µM | > 40 µM | – | – |
| CCC/C=C/C=O [trans-2-hexenal] | – | – | > 40 µM | > 40 µM | > 40 µM | – | – |
| COC(=O)c1ccccc1O [methyl salicylate] | – | – | > 40 µM | > 40 µM | > 40 µM | – | – |
| CCCCCCCCCCC [undecane] | > 40 µM | > 40 µM | – | – | – | > 40 µM | – |
| CCCCCCCCCCCCC [tridecane] | > 40 µM | > 40 µM | – | – | – | > 40 µM | – |
